ChEMBL document CHEMBL4359906, “Design and synthesis of new N-terminal fatty acid modified-antimicrobial peptide analogues with potent in vitro biological activity” (Eur J Med Chem, 2019)
Calls of active or inactive are those of the source. The calls are words filed in the database; no cut-off is given here.

Legend:
[1] = Cytotoxicity against mouse RAW264.7 cells assessed as cell proliferation at 64 uM after 1 hr by MTT assay relative to control; type: cell-based; details: read-out: Activity
Escherichia coli [2] = assay: Antibacterial activity against Escherichia coli ATCC 25922 after 18 hrs in presence of MgCl2 by CLSI based broth microdilution method (reference value: 64 microM); type: functional; details: ATCC 25922, 18 h
Staphylococcus aureus [3] = assay: Antibacterial activity against Staphylococcus aureus ATCC 25923 after 18 hrs in presence of FeCl3 by CLSI based broth microdilution method (reference value: 32 microM); type: functional; details: ATCC 25923, 18 h
Klebsiella pneumoniae = assay: Potentiation of rifampicin-induced antibacterial activity against Klebsiella pneumoniae ATCC 700603 assessed as FICI after 18 hrs by checker board assay; type: functional
Escherichia coli [4] = assay: Antibacterial activity against Escherichia coli ATCC 25922 at 0.5 times MIC incubated for 18 hrs measured for 15 passages by CLSI based broth microdilution method; type: functional, organism-based
Staphylococcus aureus [5] = assay: Antibiofilm activity against Staphylococcus aureus ATCC 25923 at 2 times of MIC after 24 hrs by crystal violet staining based assay; type: functional, organism-based
Escherichia coli [6] = assay: Antibiofilm activity against Escherichia coli ATCC 25922 assessed as reduction in biofilm inhibition at 0.5 to 1 times of MIC after 24 hrs by crystal violet staining based assay; type: functional, organism-based
Escherichia coli [7] = assay: Antimicrobial activity against Escherichia coli ATCC 25922 at 1 mM preincubated for 6 hrs in presence of 2 ug/ml chymotrypsin and measured after 18 hrs by microplate reader analysis; type: functional, organism-based
Escherichia coli [8] = assay: Antimicrobial activity against Escherichia coli ATCC 25922 preincubated for 6 hrs in presence of 10% mouse serum and measured after 18 hrs by CLSI-based broth microdilution assay (reference value: 64 microM); type: functional
Escherichia coli [9] = assay: Ratio of MIC for Escherichia coli ATCC 25922 preincubated for 1 hr in presence of 10% mouse serum and measured after 18 hrs to MIC for antibacterial activity against Escherichia coli ATCC 25922 after 18 hrs; type: functional
Escherichia coli [10] = assay: Induction of membrane disruption in Escherichia coli ATCC 25922 assessed as fracture in membrane at 4 times of MIC after 2 hrs by SEM analysis; type: functional, organism-based
[11] = Hemolytic activity in human RBC at 256 uM measured after 1 hr by microplate reader analysis relative to control; type: ADME, cell-based, Erythrocyte; details: human red blood cells (erythrocytes), read-out: Activity
Escherichia coli [12] = assay: Antibiofilm activity against Escherichia coli ATCC 25922 assessed as reduction in biofilm inhibition at MIC after 24 hrs by crystal violet staining based assay relative to control; type: functional
Escherichia coli [13] = assay: Antimicrobial activity against Escherichia coli ATCC 25922 preincubated for 6 hrs in presence of 10% mouse serum and measured after 18 hrs by CLSI-based broth microdilution assay (reference value: 4 microM); type: functional
Staphylococcus aureus [14] = assay: Antibiofilm activity against Staphylococcus aureus ATCC 25923 at 1 to 2 times of MIC after 24 hrs by crystal violet staining based assay; type: functional, organism-based

With `CCCCCCCC(=O)NCC(=O)N[C@@H](CC(C)C)C(=O)N[C@@H](CC(C)C)C(=O)N[C@H](CCCCN)C(=O)N[C@@H](CCCNC(=N)N)C(=O)N[C@H](C(=O)N[C@H](CCCCN)C(=O)N[C@H](C(=O)N[C@@H](CC(C)C)C(=O)N[C@@H](CC(C)C)C(N)=O)[C@@H](C)O)[C@@H](C)CC` as the molecule, how does the viability at 1 h, 64 µM [1] read?
Its viability at 1 h, 64 µM is > 80%.

And the MIC (Escherichia coli [2])?
Its MIC is 64 µM.

And the MIC (Staphylococcus aureus [3])?
Its MIC is 32 µM.

And the “fractional inhibitory concentration index (FICI)” value (Klebsiella pneumoniae)?
The value was 0.0625.

And the Activity (Escherichia coli [4])?
Its Activity is “Active”.

What about the inhibition (Staphylococcus aureus [5]) of the same molecule?
Its inhibition is “Active”.

And the inhibition (Escherichia coli [6])?
Its inhibition is “Active”.

And the Activity (Escherichia coli [7])?
The Activity was “Active”.

And the MIC (Escherichia coli [8])?
The MIC was 64 µM.

And the Ratio (Escherichia coli [9])?
Its Ratio is 1.

What about the Activity (Escherichia coli [10]) of the same molecule?
The Activity was “Active”.

Which hemolysis at 1 h, 256 µM [11] does the source give for `CCCCCCCC(=O)NC(Cc1cn(CCCC[C@H](NC(C)=O)C(=O)NCC(=O)N[C@@H](CC(C)C)C(=O)N[C@@H](CC(C)C)C(=O)N[C@H](CCCCN)C(=O)N[C@@H](CCCNC(=N)N)C(=O)N[C@H](C(=O)N[C@H](CCCCN)C(=O)N[C@H](C(=O)N[C@@H](CC(C)C)C(=O)N[C@@H](CC(C)C)C(N)=O)[C@@H](C)O)[C@@H](C)CC)nn1)C(=O)NCC(=O)N[C@@H](CC(C)C)C(=O)N[C@@H](CC(C)C)C(=O)N[C@H](CCCCN)C(=O)N[C@@H](CCCNC(=N)N)C(=O)N[C@H](C(=O)N[C@H](CCCCN)C(=O)N[C@H](C(=O)N[C@@H](CC(C)C)C(=O)N[C@@H](CC(C)C)C(N)=O)[C@@H](C)O)[C@@H](C)CC` (stereo not given in full) here?
The hemolysis at 1 h, 256 µM was < 5%.

What about the “fractional inhibitory concentration index (FICI)” value (Klebsiella pneumoniae) of the same molecule?
Its value is 0.5625.

What about the Activity (Escherichia coli [4]) of the same molecule?
The Activity was “Active”.

What about the “inhibition (INH)” value (Escherichia coli [12]) of the same molecule?
The value was >50%.

And the Activity (Escherichia coli [7])?
Its Activity is “Active”.

And the MIC (Escherichia coli [13])?
Its MIC is 16 µM.

What about the Ratio (Escherichia coli [9]) of the same molecule?
The Ratio was 2.

And the inhibition (Staphylococcus aureus [14])?
The inhibition was “Active”.

What about the Activity (Escherichia coli [10]) of the same molecule?
The Activity was “Active”.
